The first assay has as its system Alternaria brassicae. The assay can be described thus: In vivo preventive test on Alternaria brassicae (leaf spot on radish), Examples A and R1. Particulars: Alternaria brassicae, 144 h, 500 ppm of active ingredient, preventive spray, evaluated 6 days after inoculation, read-out: efficacy.
As to `OC(Cc1ccccc1Cl)(Cn1cncc1-c1cccs1)C1(Cl)CC1` (stereo not drawn) [Example I-20], the pest or weed control at 500 ppm was 80 to 89%.

Turning to `Cc1ccccc1CC(O)(Cn1cncc1C#N)C1(Cl)CC1` (stereo not drawn) [Example I-54], the pest or weed control at 500 ppm lay within 80 to 89%.

Regarding `CC(=O)c1cncn1CC(O)(Cc1ccccc1Cl)C1(Cl)CC1` (stereo not drawn) [Example I-19], the pest or weed control at 500 ppm is 80 to 89%.

The assay is the same for the next values; noted with them: Alternaria brassicae, 144 h, Example R1, rate of application 100 ppm, read-out: Efficacy in %.
In the case of `OC(Cc1ccccc1Cl)(Cn1cnc(Br)c1)C1(Cl)CC1` (stereo not drawn) [drawing 59, reference compound], the pest or weed control at 100 ppm worked out at 0%.

On to `OC(Cc1ccccc1F)(Cn1ccnc1Cl)C1(Cl)CC1` (stereo not drawn) [drawing 64, reference compound], for which the pest or weed control at 100 ppm was 0%.

With `Cc1cn(CC(O)(Cc2ccccc2Cl)C2(Cl)CC2)cn1` (stereo not drawn) [drawing 61, reference compound], the pest or weed control at 100 ppm is 0%.

In the case of `OC(Cc1ccccc1F)(Cn1cnc(Cl)c1)C1(Cl)CC1` (stereo not drawn) [drawing 63, reference compound], the pest or weed control at 100 ppm was 0%.

The assay is the same for the next values; noted with them: Alternaria brassicae, 144 h, Example R1, rate of application 500 ppm, read-out: Efficacy in %.
With `OC(Cc1ccccc1Cl)(Cn1cnc(Br)c1)C1(Cl)CC1` (stereo not drawn) [drawing 59, reference compound], the pest or weed control at 500 ppm is 40%.

Regarding `OC(Cc1ccccc1F)(Cn1ccnc1Cl)C1(Cl)CC1` (stereo not drawn) [drawing 64, reference compound], the pest or weed control at 500 ppm turned out to be 0%.

With `Cc1cn(CC(O)(Cc2ccccc2Cl)C2(Cl)CC2)cn1` (stereo not drawn) [drawing 61, reference compound], the pest or weed control at 500 ppm is 0%.

As to `OC(Cc1ccccc1F)(Cn1cnc(Cl)c1)C1(Cl)CC1` (stereo not drawn) [drawing 63, reference compound], the pest or weed control at 500 ppm turned out to be 0%.

Still in this assay, the particulars now being: Example R1, rate of application 100 ppm.
For the compound `OC(Cc1ccc(Cl)cc1F)(Cn1ccc(Cl)c1)C1(Cl)CC1` (racemic) [reference compound], the Efficacy in % was 0%.

Staying with this assay, now noted: Example R1, rate of application 500 ppm.
For the compound `OC(Cc1ccc(Cl)cc1F)(Cn1ccc(Cl)c1)C1(Cl)CC1` (racemic) [reference compound], the Efficacy in % was found to be 0%.

The test system of the next assay is Botrytis cinerea. The assay can be described thus: In vivo preventive test on Botrytis cinerea (grey mould) on gherkin, Examples B, Q1 and R2. As to conditions: Botrytis cinerea, 500 ppm of active ingredient, preventive spray, evaluated 4 to 5 days after inoculation, read-out: efficacy.
As to `Cc1ccccc1CC(O)(Cn1cncc1C#N)C1(Cl)CC1` (stereo not drawn) [Example I-54], the pest or weed control at 500 ppm fell in the range of 90 to 100%.

As for `OC(Cc1ccc(Br)cc1Cl)(Cn1cncc1Cl)C1(Cl)CC1` (stereo not drawn) [Example I-43], the pest or weed control at 500 ppm fell in the range of 90 to 100%.

A further assay deals with Puccinia recondita. The assay can be described thus: In vivo preventive test on Puccinia recondita (brown rust on wheat), Examples C and R3. As to conditions: Puccinia recondita, 264 h; 500 ppm of active ingredient; wheat, preventive spray, evaluated 11 days after inoculation; read-out: efficacy.
For `OC(Cc1ccccc1Cl)(Cn1cncc1-c1cccs1)C1(Cl)CC1` (stereo not drawn) [Example I-20], the pest or weed control at 500 ppm is 80 to 89%.

For `Cc1ccccc1CC(O)(Cn1cncc1C#N)C1(Cl)CC1` (stereo not drawn) [Example I-54], the pest or weed control at 500 ppm lay within 80 to 89%.

For the compound `OC(Cc1ccc(Br)cc1Cl)(Cn1cncc1Cl)C1(Cl)CC1` (stereo not drawn) [Example I-43], the pest or weed control at 500 ppm lay within 90 to 100%.

Consider `CC(=O)c1cncn1CC(O)(Cc1ccccc1Cl)C1(Cl)CC1` (stereo not drawn) [Example I-19], for which the pest or weed control at 500 ppm was in the range of 90 to 100%.

In a further assay the test system is Pyrenophora teres. The assay can be described thus: In vivo preventive test on Pyrenophora teres (net blotch on barley), Examples D, Q2 and R4. As to conditions: Pyrenophora teres, 336 h, 500 ppm of active ingredient, preventive spray, evaluated 14 days after inoculation, read-out: efficacy.
For the compound `Cc1ccccc1CC(O)(Cn1cncc1C#N)C1(Cl)CC1` (stereo not drawn) [Example I-54], the pest or weed control at 500 ppm was 80 to 89%.

For the compound `OC(Cc1ccc(Br)cc1Cl)(Cn1cncc1Cl)C1(Cl)CC1` (stereo not drawn) [Example I-43], the pest or weed control at 500 ppm lay within 90 to 100%.

As for `CC(=O)c1cncn1CC(O)(Cc1ccccc1Cl)C1(Cl)CC1` (stereo not drawn) [Example I-19], the pest or weed control at 500 ppm fell in the range of 80 to 89%.

A further assay has as its system Septoria tritici. The assay can be described thus: In vivo preventive test on Septoria tritici (leaf spot on wheat), Examples E, Q3 and R5. Particulars: Zymoseptoria tritici, 576 h, 500 ppm of active ingredient; wheat, preventive spray, evaluated 24 days after inoculation; read-out: efficacy.
As for `OC(Cc1ccccc1Cl)(Cn1cncc1-c1cccs1)C1(Cl)CC1` (stereo not drawn) [Example I-20], the pest or weed control at 500 ppm fell in the range of 80 to 89%.

Consider `Cc1ccccc1CC(O)(Cn1cncc1C#N)C1(Cl)CC1` (stereo not drawn) [Example I-54], for which the pest or weed control at 500 ppm lay in the range of 90 to 100%.

On to `OC(Cc1ccc(Br)cc1Cl)(Cn1cncc1Cl)C1(Cl)CC1` (stereo not drawn) [Example I-43], for which the pest or weed control at 500 ppm is 90 to 100%.

As to `CC(=O)c1cncn1CC(O)(Cc1ccccc1Cl)C1(Cl)CC1` (stereo not drawn) [Example I-19], the pest or weed control at 500 ppm is 90 to 100%.

The test system of the next assay is Sphaerotheca fuliginea. The assay can be described thus: In vivo preventive test on Sphaerotheca fuliginea (powdery mildew on cucurbits), Examples F and R6. Particulars: Podosphaera fuliginea, 360 h; 500 ppm of active ingredient; gherkin, preventive spray, evaluated 15 days after inoculation; read-out: efficacy.
On to `OC(Cc1ccccc1Cl)(Cn1cncc1-c1cccs1)C1(Cl)CC1` (stereo not drawn) [Example I-20], for which the pest or weed control at 500 ppm lay in the range of 90 to 100%.

Consider `Cc1ccccc1CC(O)(Cn1cncc1C#N)C1(Cl)CC1` (stereo not drawn) [Example I-54], for which the pest or weed control at 500 ppm fell in the range of 90 to 100%.

For the compound `OC(Cc1ccc(Br)cc1Cl)(Cn1cncc1Cl)C1(Cl)CC1` (stereo not drawn) [Example I-43], the pest or weed control at 500 ppm fell in the range of 90 to 100%.

For `CC(=O)c1cncn1CC(O)(Cc1ccccc1Cl)C1(Cl)CC1` (stereo not drawn) [Example I-19], the pest or weed control at 500 ppm was 90 to 100%.

For another assay, the system named is Uromyces appendiculatus. The assay can be described thus: In vivo preventive test on Uromyces appendiculatus (bean rust), Examples G and R7. Particulars: 264 h, 500 ppm of active ingredient, bean, preventive spray, evaluated 11 days after inoculation, read-out: efficacy.
In the case of `OC(Cc1ccccc1Cl)(Cn1cncc1-c1cccs1)C1(Cl)CC1` (stereo not drawn) [Example I-20], the pest or weed control at 500 ppm was 90 to 100%.

Consider `Cc1ccccc1CC(O)(Cn1cncc1C#N)C1(Cl)CC1` (stereo not drawn) [Example I-54], for which the pest or weed control at 500 ppm lay in the range of 90 to 100%.

As for `OC(Cc1ccc(Br)cc1Cl)(Cn1cncc1Cl)C1(Cl)CC1` (stereo not drawn) [Example I-43], the pest or weed control at 500 ppm was 90 to 100%.

The subject of another assay is Alternaria solani. The assay can be described thus: In vivo preventive Alternaria test (tomatoes), Example H. Particulars: 72 h, 100 ppm of active ingredient, preventive spray, evaluated 3 days after inoculation, read-out: efficacy.
With `OC(Cc1ccc(Br)cc1Cl)(Cn1cncc1Cl)C1(Cl)CC1` (stereo not drawn) [Example I-43], the pest or weed control at 100 ppm fell in the range of 80 to 89%.

Another assay deals with Phakopsora pachyrhizi. The assay can be described thus: In vivo preventive Phakopsora test (soybeans), Example I. As to conditions: 168 h, 100 ppm of active ingredient, preventive spray, evaluated 7 days after inoculation, read-out: efficacy.
`OC(Cc1ccc(Br)cc1Cl)(Cn1cncc1Cl)C1(Cl)CC1` (stereo not drawn) [Example I-43]: the pest or weed control at 100 ppm lay in the range of 90 to 100%.

A further assay concerns Blumeria graminis fsp. hordei. The assay can be described thus: In vivo preventive Blumeria test (barley), Example K. As to conditions: 168 h, 500 ppm of active ingredient, preventive spray, evaluated 7 days after inoculation, read-out: efficacy. The source says: After the spray coating has been dried, the plants are dusted with spores of Blumeria graminis fsp. hordei.
As for `OC(Cc1ccc(Br)cc1Cl)(Cn1cncc1Cl)C1(Cl)CC1` (stereo not drawn) [Example I-43], the pest or weed control at 500 ppm was in the range of 80 to 89%.

For the origin of these results see US10231453B2, “5-substituted imidazole derivatives” (BAYER CROPSCIENCE AKTIENGESELLSCHAFT, priority 2015, dated 2019).
